Blank lines part the entries; values can stand above or below the compound they belong to.
Key:
[1] = Storage test (1-3) using 30 mM acetate buffer solution (pH 5.1); format: physicochemical; conditions: 1.0 wt % hyaluronic acid derivative, 30 mM acetate buffer pH 5.1, 1 week at 60° C., HPLC, control solution = 1
Experimental: (§1) An acetic acid aqueous solution having an acetic acid concentration of 15 mM and a sodium acetate aqueous solution having an acetate concentration of 15 mM were mixed at a ratio (volume ratio) of 1:3, whereby an acetate buffer solution was prepared. The pH of the acetate buffer solution after preparation was 5.1. In addition, an acetate buffer solution having an acetic acid concentration of 45 mM and a pH of 5.1 was prepared in a similar manner.
(§2) 1.5 g of the hyaluronic acid derivative of the above Synthesis Example and 98.5 g of each of the various buffer solutions prepared above were mixed and stirred for 2 hours in a water bath at 70° C., whereby a 1.5 wt % hyaluronic acid derivative solution was prepared.
(§3) Additional component aqueous solutions to be added to the hyaluronic acid derivative solution were prepared using various additional components and WFI so that the concentration of each component is three times as high as the final concentration (wt %).
(§4) 2.0 g of the 1.5 wt % hyaluronic acid derivative solution prepared above and 1.0 g of the additional component aqueous solution were mixed, whereby a test sample (final concentration of hyaluronic acid derivative: 1.0 wt %) was prepared.
(§5) The test samples prepared above containing each of the various buffer solutions (50 mM phosphate buffer solution, 10 mM citrate buffer solution, 10 mM acetate buffer solution, or 30 mM acetate buffer solution) were subjected to a storage test.
(§6) Each of the test samples was stored for 1 week in a thermostat chamber at 60° C., and thereafter, the accumulation amount of each of diclofenac and diclofenac lactam was measured by HPLC.
(§7) The amount of diclofenac and the amount of diclofenac lactam were calculated as relative values when each of the amount of diclofenac and the amount of diclofenac lactam present in the control solution (1 wt % hyaluronic acid derivative solution) after being stored for 1 week at 60° C. was assumed to be 1.
(§8) Each of the prepared various test samples was filled in a screw vial (AS ONE Corporation, Cat No. 3-1599-01) and left to stand at 60° C. for 1 week. The amount of diclofenac and the amount of diclofenac lactam present in the solution after being left to stand were quantitatively analyzed by HPLC.
(§9) The HPLC conditions are as follows.
(§10) The elution time of each of diclofenac and diclofenac lactam was determined by performing measurement in advance using a standard substance.
As the additional component, propyl gallate (1.5 wt %), any one of lactic acid anhydrous (1.5 wt %), hydroxypropyl cellulose (1.5 wt %), starch (1.5 wt %), dextran (5 wt %), sucrose (5 wt %), sodium saccharinate dihydrate (5 wt %), glycine (5 wt %), sodium aspartate (1.5 wt %), L-leucine (1.5 wt %), L-phenylalanine (5 wt %), L-serine (5 wt %), D-mannitol (1.5 wt %), D-sorbitol (5 wt %), hydroxypropyl-β-cyclodextrin (3 wt %, 5 wt %, 10 wt %, or 15 wt %), and ethanol (5 wt %, 10 wt %, 20 wt %, or 26.3 wt %) was used.

[2] = Evaluation of filterability of aqueous composition (Vmax); format: physicochemical; conditions: 1.0 wt % hyaluronic acid derivative, acetate buffer pH 5.1, 0.22 μm PVDF membrane, 0.6 MPa, 70° C.
Experimental: The calculation of the maximum treatment amount (Vmax) is more specifically performed as follows. That is, the aqueous composition at a liquid temperature of 70° C. is filtered under a pressure of 0.6 MPa using a polyvinylidene fluoride filtration membrane with a pore size of 0.22 μm. At that time, the total filtration amount per effective filtration area (V) of the filtration membrane is measured every 30 seconds until the flow rate (Q) becomes 1/10 or less of the flow rate at the start of filtration. By plotting the measurement results with the filtration time (t) along the horizontal axis and t/V along the vertical axis, the following formula A is calculated within a range of the measurement point where the transition of t/V is stable. The maximum treatment amount (Vmax) is determined from the reciprocal of the slope a of the calculation formula A (that is, the following calculation formula B). Note that the flow rate (Q) is the filtration amount per unit time (that is, Q=dV/dt).
The hyaluronic acid derivative prepared above and the 15 mM acetate buffer solution (pH 5.1) prepared above were mixed and stirred, and then, defoamed by being left to stand, whereby a 1.5 wt % hyaluronic acid derivative solution was prepared.
150.0 g of the 1.5 wt % hyaluronic acid derivative solution prepared above and 75.0 g of an additional component aqueous solution were mixed, whereby a test sample (final concentration of hyaluronic acid derivative: 1.0 wt %) was prepared.
In addition, a control solution in which 75.0 g of WFI was mixed in place of the additional component aqueous solution was also prepared.
To a stainless steel pressure filter holder in which a polyvinylidene fluoride (PVDF) membrane (47 mm in diameter, effective filtration area: 13.8 cm^2, manufactured by Merck & Co.) with a pore size of 0.22 μm was set, 200 mL of the test sample prepared above was added and pressure was applied at 0.6 MPa at 70° C. The amount of liquid passing through the filter was weighed every 30 seconds, and the maximum treatment amount (Vmax) was calculated from the relationship between the elapsed time and the total filtration amount.

[3] = Storage test (1-2) using 10 mM citrate buffer solution (pH 5.1); format: physicochemical; conditions: after storage, 1.0 wt % hyaluronic acid derivative, 10 mM citrate buffer pH 5.1, 1 week at 60° C.
Experimental: A citric acid aqueous solution having a citric acid concentration of 15 mM and a trisodium citrate aqueous solution having a citrate concentration of 15 mM were mixed at a ratio (volume ratio) of 27:37, whereby a citrate buffer solution was prepared. The pH of the citrate buffer solution after preparation was 5.1.
as §2, §3, §4, §5, §6, §7, §8, §9, §10
As the additional component, creatinine (1 wt %), sodium deoxycholate (5 wt %), 1,2,3-butanetriol (5 wt %), PEG 400 (6.3 wt % or 16.5 wt %), PEG 600 (10 wt %), PEG 4000 (10 wt %), PEG 6000 (10 wt %), SDS (5 wt %), Triton X-100 (5 wt %), ethanol (26 wt %), octyl glucoside (5 wt %), glucuronolactone (0.1 wt %), chlorogenic acid (0.1 wt %), propylene glycol (10 wt %), polysorbate 20 (5 wt %), or polyvinylpyrrolidone (5 wt %) was used.
Similarly, as the additional component, additional components of a two-component system of PEG 3350 (10.6 wt %) and polysorbate 80 (3 wt %), or PEG 3350 (6.0 wt %) and hydroxypropyl-β-cyclodextrin (10 wt %), or additional components of a three-component system of PEG 3350 (5.5 wt %), polysorbate 80 (1 wt %) and hydroxypropyl-β-cyclodextrin (10 wt %) were used.

[4] = Storage test (1-1) using 50 mM phosphate buffer solution (pH 6.5); format: physicochemical; conditions: additional component 5 wt %; 1.0 wt % hyaluronic acid derivative, 50 mM phosphate buffer pH 6.5, 1 week at 60° C., HPLC; control solution = 1
Experimental: as §2, §3, §4, §5, §6, §7, §8, §9, §10

Cox-2 = biological target: T1, Cox-2 (Homo sapiens, UniProt P35354); experiment: Cox-2 inhibitory activity; format: biochemical; conditions: ratio to diclofenac
T1 sequence (P35354 18-604): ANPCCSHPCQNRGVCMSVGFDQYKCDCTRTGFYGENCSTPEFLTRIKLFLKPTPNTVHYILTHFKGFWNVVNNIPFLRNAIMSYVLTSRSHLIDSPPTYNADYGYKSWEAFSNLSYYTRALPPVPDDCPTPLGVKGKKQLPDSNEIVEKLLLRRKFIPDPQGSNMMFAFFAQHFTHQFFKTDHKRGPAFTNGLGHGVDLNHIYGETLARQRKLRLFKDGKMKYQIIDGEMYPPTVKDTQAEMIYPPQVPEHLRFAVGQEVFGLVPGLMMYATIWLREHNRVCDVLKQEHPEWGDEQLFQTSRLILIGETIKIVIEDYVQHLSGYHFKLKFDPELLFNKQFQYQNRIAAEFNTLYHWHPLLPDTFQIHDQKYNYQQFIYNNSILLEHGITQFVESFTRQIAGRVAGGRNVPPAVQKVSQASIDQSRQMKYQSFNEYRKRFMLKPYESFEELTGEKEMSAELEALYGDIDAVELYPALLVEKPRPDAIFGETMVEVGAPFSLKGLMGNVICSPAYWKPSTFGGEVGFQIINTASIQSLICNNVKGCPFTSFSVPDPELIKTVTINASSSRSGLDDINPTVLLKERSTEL

[5] = Storage test (1-4) using 10 mM acetate buffer solution (pH 5.1); format: physicochemical; conditions: additional component 5 wt %; 1.0 wt % hyaluronic acid derivative, 10 mM acetate buffer pH 5.1, 1 week at 60° C., HPLC; control solution = 1
Experimental: as §1, with “manner. […]” for “manner.”
as §6, §7
as §8, with “HPLC. […]” for “HPLC.”
as §10

Compound: hydroxypropyl-β-cyclodextrin [HP-β-CD]
Dic amount: the relative value of the amount of diclofenac ([1]; additional component 3 wt %): 0.62
Lac amount: the relative value of the amount of diclofenac lactam ([1]; additional component 3 wt %): 0.45
Dic amount: the relative value of the amount of diclofenac ([1]; additional component 5 wt %): 0.54
Lac amount: the relative value of the amount of diclofenac lactam ([1]; additional component 5 wt %): 0.34
Dic amount: the relative value of the amount of diclofenac ([1]; additional component 10 wt %): 0.44
Lac amount: the relative value of the amount of diclofenac lactam ([1]; additional component 10 wt %): 0.23
Dic amount: the relative value of the amount of diclofenac ([1]; additional component 15 wt %): 0.36
Lac amount: the relative value of the amount of diclofenac lactam ([1]; additional component 15 wt %): 0.17
Maximum treatment amount ([2]; additional component 5 wt %): 8.3 g/cm^2
Maximum treatment amount ([2]; additional component 10 wt %): 10.4 g/cm^2

Compound: CC(O)CO (centres unmarked) [propylene glycol]
Solution properties ([3]; additional component 10 wt %): colorless and slightly turbid

Compound: COc1ccc(O)c(C(C)(C)C)c1 [butylhydroxyanisole]
Dic amount: the relative value of the amount of diclofenac [4]: 0.99

Compound: O=C1Cc2ccccc2N1c1c(Cl)cccc1Cl [diclofenac lactam]
Cox-2 inhibitory activity relative to that of diclofenac (Cox-2): about 1/100

Compound: octylphenol ethoxylate [Triton X-100]
Solution properties ([3]; additional component 5 wt %): colorless and clear

Compound: OC[C@H]1OC=C[C@@H](O)[C@@H]1O [D-glucal]
Dic amount: the relative value of the amount of diclofenac [4]: 1.15

Further lines, results first:

Solution properties ([3]; additional component 0.1 wt %): light yellow and clear
Compound: O=C(/C=C/c1ccc(O)c(O)c1)O[C@@H]1C[C@](O)(C(=O)O)C[C@@H](O)[C@H]1O [chlorogenic acid]

Solution properties ([3]; additional component 5 wt %): colorless and clear
Compound: CCCCCCCCCCCCOS(=O)(=O)[O-].[Na+] [SDS, sodium dodecyl sulfate]

Solution properties ([3]; additional component 5 wt %): colorless and clear
Compound: CCCCCCCCO[C@@H]1O[C@H](CO)[C@@H](O)[C@H](O)[C@H]1O [octyl glucoside]

Solution properties ([3]; additional component 5 wt %): colorless and clear
Compound: polysorbate 20

Maximum treatment amount ([2]; additional component 5 wt %): 10.3 g/cm^2
Maximum treatment amount ([2]; additional component 10 wt %): 8.2 g/cm^2
Solution properties ([3]; additional component 26 wt %): colorless and clear
Compound: CCO [ethanol]

Dic amount: the relative value of the amount of diclofenac [4]: 1.02
Compound: OCC(O)CO [glycerin]

Dic amount: the relative value of the amount of diclofenac [5]: 0.63
Lac amount: the relative value of the amount of diclofenac lactam [5]: 0.34
Compound: hydroxyethyl-β-cyclodextrin [HE-β-CD]

Solution properties ([3]; additional component 0.1 wt %): slightly yellow and clear
Compound: O=C[C@H](O)[C@H]1OC(=O)[C@@H](O)[C@H]1O [glucuronolactone]

From patent US11744899B2, “Pharmaceutical composition containing a hyaluronic acid derivative” (SEIKAGAKU CORPORATION, priority 2018, dated 2023)
